SMILES strings stand for the structures. The source made the active and inactive calls. Where only a bound is given, the exact number is not on record here.

The target of data set [1] is Intestinal-type alkaline phosphatase (Mus musculus, UniProt P24822). The experiment in a line: PubChem AID 488875. Type of data set: functional.
For data set [2], the target named is T1, Intestinal-type alkaline phosphatase (Homo sapiens, UniProt P09923). The experiment in a line: human intestinal alkaline phosphatase activators, dose response, biochemical, luminescence, uHTS hits (AID 463120). Type of data set: functional.
T1 sequence (P09923 whole entry): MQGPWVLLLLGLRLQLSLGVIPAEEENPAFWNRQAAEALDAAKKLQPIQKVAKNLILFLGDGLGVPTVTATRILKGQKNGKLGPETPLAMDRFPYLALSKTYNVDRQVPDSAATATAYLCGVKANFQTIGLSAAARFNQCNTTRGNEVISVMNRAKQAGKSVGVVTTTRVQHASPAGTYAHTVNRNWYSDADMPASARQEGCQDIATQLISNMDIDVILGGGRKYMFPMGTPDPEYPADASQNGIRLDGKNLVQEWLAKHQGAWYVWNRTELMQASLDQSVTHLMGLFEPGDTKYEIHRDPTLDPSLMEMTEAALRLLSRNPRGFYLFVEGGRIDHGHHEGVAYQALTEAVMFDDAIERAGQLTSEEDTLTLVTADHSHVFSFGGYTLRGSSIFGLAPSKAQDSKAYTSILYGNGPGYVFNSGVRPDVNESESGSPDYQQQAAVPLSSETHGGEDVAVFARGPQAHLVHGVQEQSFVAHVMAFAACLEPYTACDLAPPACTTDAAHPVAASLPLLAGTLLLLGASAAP
For data set [3], the target named is T2, Alkaline phosphatase, tissue-nonspecific isozyme (Homo sapiens, UniProt P05186).
T2 sequence (P05186 whole entry): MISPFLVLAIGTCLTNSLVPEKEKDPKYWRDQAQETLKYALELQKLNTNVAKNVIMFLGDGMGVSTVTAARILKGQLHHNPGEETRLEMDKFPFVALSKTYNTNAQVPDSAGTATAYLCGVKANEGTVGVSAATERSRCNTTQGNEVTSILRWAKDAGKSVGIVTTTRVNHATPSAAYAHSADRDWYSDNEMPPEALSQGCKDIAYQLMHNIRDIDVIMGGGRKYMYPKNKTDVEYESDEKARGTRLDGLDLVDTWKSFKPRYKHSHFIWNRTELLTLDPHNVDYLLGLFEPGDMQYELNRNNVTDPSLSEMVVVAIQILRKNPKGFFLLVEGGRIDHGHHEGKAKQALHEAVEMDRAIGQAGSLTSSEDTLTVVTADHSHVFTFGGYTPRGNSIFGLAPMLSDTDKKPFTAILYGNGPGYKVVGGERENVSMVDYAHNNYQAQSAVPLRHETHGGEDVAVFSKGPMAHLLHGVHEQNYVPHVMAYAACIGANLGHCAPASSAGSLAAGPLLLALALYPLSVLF
The data set is described as follows: activation of tissue-nonspecific alkaline phosphatase – biochemical, TNAP isozyme, human IAP uHTS hits, selectivity assay for human IAP activator project, dose response (AID 488886).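 Note: potency of compounds raising TNAP activity as a selectivity check on IAP activators.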 Type of data set: functional.

The target in data set [4] is T1, Intestinal-type alkaline phosphatase. The data set is described as follows: activation of human intestinal alkaline phosphatase – biochemical, luminescent, uHTS hits, set 2, dose response (AID 488817).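 Note: potency of activators that raise enzyme activity.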 Type of data set: functional.
The target in another data set is SUMO E1/E2 (Homo sapiens, UniProt P63279+Q9UBE0+Q9UBT2). The data set is described as follows: SAR analysis of SUMOylation using HTRF in an in-Vitro dose response assay. [Related pubchem assays (depositor defined):AID2006, AID2011, AID2018, AID2069, AID2658]. Type of data set: functional. Background: Time-resolved FRET reads energy transfer from a long-lived donor to a nearby acceptor.
Chain of SUMO E1/E2 (Q9UBE0 whole entry): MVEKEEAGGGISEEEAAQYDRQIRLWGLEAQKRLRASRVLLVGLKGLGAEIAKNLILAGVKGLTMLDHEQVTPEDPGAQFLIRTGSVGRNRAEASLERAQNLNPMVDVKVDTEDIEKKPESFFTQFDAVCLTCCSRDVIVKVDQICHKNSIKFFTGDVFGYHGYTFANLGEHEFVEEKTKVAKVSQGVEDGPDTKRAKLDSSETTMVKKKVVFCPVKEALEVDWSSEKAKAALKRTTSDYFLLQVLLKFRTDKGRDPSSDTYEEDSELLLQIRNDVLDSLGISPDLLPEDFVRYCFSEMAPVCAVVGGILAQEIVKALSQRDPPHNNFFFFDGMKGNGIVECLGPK
Chain of SUMO E1/E2 (Q9UBT2 whole entry): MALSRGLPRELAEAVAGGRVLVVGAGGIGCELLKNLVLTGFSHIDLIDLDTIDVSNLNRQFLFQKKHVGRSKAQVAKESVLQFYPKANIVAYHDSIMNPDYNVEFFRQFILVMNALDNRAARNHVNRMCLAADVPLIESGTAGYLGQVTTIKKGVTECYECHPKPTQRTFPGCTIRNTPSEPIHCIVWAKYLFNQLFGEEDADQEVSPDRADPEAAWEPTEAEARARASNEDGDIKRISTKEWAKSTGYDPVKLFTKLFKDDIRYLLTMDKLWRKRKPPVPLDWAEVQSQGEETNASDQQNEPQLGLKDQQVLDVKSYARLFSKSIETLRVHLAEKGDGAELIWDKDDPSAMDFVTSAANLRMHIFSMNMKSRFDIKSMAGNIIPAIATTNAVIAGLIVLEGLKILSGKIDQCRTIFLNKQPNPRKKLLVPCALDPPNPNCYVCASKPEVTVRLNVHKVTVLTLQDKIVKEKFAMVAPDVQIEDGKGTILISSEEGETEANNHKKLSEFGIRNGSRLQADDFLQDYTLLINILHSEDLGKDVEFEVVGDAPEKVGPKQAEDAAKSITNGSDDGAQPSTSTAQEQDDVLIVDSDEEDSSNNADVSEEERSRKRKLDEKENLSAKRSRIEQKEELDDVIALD
Chain of SUMO E1/E2 (P63279 whole entry): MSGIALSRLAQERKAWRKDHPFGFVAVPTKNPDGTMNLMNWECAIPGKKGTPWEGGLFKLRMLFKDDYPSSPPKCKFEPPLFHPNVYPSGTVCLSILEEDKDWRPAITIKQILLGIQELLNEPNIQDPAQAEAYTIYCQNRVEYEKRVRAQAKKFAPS

In data set [5] the target is Kappa-type opioid receptor (Homo sapiens, UniProt P41145). The experiment in a line: SAR analysis of small molecule agonists of the kappa opioid receptor via a luminescent beta-arrestin assay - Set 3. [Related pubchem assays (depositor defined):AID1777, AID1785, AID1786, AID1966, AID2133, AID2136, AID2284, AID2500]. In kind it is functional.
Chain of Kappa-type opioid receptor (P41145 whole entry): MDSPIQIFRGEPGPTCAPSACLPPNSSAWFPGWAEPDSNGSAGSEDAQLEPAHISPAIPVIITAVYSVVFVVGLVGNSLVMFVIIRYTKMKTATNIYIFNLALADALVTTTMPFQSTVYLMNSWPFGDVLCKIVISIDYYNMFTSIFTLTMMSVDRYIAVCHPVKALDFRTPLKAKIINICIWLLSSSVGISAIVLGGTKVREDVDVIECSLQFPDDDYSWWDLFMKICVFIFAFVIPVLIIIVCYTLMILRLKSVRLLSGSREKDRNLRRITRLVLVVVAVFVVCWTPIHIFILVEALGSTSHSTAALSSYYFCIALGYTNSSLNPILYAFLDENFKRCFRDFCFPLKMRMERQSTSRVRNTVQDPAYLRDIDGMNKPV
Data set [6] has as its target T3, Cytochrome P450 1A2 (Homo sapiens, UniProt P05177).
T3 sequence (P05177 whole entry): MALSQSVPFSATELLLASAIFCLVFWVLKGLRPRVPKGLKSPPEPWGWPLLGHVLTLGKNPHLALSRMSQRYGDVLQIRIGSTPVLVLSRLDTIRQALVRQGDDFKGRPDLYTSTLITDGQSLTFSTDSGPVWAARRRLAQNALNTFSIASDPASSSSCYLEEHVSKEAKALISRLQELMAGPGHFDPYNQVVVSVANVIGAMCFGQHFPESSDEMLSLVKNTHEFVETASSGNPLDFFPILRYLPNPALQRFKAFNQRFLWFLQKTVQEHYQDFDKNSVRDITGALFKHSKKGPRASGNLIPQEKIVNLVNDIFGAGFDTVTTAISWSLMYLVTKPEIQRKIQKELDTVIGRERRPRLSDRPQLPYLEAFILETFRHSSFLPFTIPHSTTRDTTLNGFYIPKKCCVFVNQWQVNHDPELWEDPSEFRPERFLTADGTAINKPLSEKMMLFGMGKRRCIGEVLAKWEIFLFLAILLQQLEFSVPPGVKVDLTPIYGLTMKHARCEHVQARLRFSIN

In data set [7] the target is T3, Cytochrome P450 1A2. This is another data set of the same source.
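Throughout, for AC50: PubChem cytochrome P450 panel assay, CYP1A2 panel member.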

Chain of Intestinal-type alkaline phosphatase (Mus musculus, UniProt P24822) (P24822 whole entry): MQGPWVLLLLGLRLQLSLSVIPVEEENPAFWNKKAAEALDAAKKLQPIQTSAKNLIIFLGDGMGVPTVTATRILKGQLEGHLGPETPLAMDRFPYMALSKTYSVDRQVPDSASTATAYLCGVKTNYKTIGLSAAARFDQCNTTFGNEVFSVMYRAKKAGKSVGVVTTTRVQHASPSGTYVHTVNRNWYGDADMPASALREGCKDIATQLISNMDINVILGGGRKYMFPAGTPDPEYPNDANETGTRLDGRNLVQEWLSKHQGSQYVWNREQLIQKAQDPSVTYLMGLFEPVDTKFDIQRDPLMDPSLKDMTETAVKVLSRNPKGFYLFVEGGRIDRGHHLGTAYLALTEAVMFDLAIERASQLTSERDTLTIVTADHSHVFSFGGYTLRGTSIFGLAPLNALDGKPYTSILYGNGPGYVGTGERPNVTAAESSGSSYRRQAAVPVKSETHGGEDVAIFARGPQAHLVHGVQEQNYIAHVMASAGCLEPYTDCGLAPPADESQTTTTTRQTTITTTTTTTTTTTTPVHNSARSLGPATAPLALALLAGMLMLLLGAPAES

By EC50 is commonly meant the concentration at which the effect is half-maximal. For `Cc1ccccc1CN1CCC(n2nccc2NC(=O)CCCc2ccccc2)CC1`, the EC50 in data set [1] is 61 µM (active); in data set [2], 70.7 µM (active); in data set [3], 63.4 µM (active); in data set [4], 64.1 µM (active).

Broadly, the IC50 is the midpoint of a concentration-inhibition curve. As for `COC(=O)c1ccc2c(c1)C1C=CCC1C(c1ccc(C(=O)O)cc1)N2` (stereo not drawn), the IC50 at SUMO E1/E2 was > 100 µM (inactive).

For `COc1ccc(Cn2c(SCc3ccc(Cl)c(C(F)(F)F)c3)nnc2-c2ccccn2)cc1`, in data set [5], the EC50 was 18.8 µM (inactive).

By AC50 is commonly meant the concentration at which the activity in the assay is half-maximal. As to `c1cncc([C@@H]2CCCCN2)c1` [ANABASINE], the AC50 entry at Cytochrome P450 1A2 [6] is “inconclusive”; on Cytochrome P450 1A2 [7] it was 5.01 µM (inconclusive).

These data come from ChEMBL document CHEMBL1201862, “PubChem BioAssay data set” (2004).
